Measurements: patent US20260242438A1 (INSTITUTE OF MATERIA MEDICA, CHINESE ACADEMY OF MEDICAL …, priority 2022, published 2026)
Where a SMILES comes first, the peptide text is derived from it. Bridges are numbered along the chain shown (N, C = ends).

Target: chymotrypsin (Bos taurus, UniProt P00766)
Assay: Determination of enzyme inhibitory activity against chymotrypsin (substrate AAPFpNA, OD 405 nm)
Type: biochemical
Settings: for IC50: chymotrypsin 30 nM, AAPFpNA 0.5 mM, pH 7.8, 37° C.; for remaining activity at 0.001 µM: peptide 0.001 μM; for remaining activity at 0.1 µM: peptide 0.1 μM; for remaining activity at 0.2 µM: peptide 0.2 μM; for remaining activity at 0.4 µM: peptide 0.4 μM; for remaining activity at 1 µM: peptide 1 μM; for remaining activity at 10 µM: peptide 10 μM; for remaining activity at 100 µM: peptide 100 μM; for remaining activity at 1000 µM: peptide 1000 μM; for remaining activity at 0.01 µM: peptide 0.01 μM; for remaining activity at 0.5 µM: peptide 0.5 μM; for remaining activity at 0.0001 µM: peptide 0.0001 μM; for remaining activity at 0.25 µM: peptide 0.25 μM; for remaining activity at 0.75 µM: peptide 0.75 μM
Experimental: The substrates N-succinyl-Ala-Ala-Pro-Phe-p-nitroaniline (AAPFpNA) is used in competitive binding reaction to determine the inhibitory activities against α -chymotrypsin. Experiments for a-chymotrypsin was measured in 20 mM CaCl2, 50 mM Tris-HCl buffer (pH 7.8). The concentration of the peptide was measured using optical density (OD) at 280 nm. The Michaelis constant (Km) of the enzyme hydrolysis substrate is calculated from the initial rate of substrate hydrolysis at 405 nm. The absorbance value of the substrate was measured at 405 nm after complete hydrolysis. All data were processed using nonlinear regression.
(1) Added a total 190 μL of reaction buffer (20 mM CaCl2, 50 mM Tris-HCl (pH 7.8)), different concentrations of anti-chymorypsin peptides (CHs) into the pre-cold 96 well plate, followed by preheating at 37° C. for 5 min and centrifugated at 500 rpm for 1 min and allowed to stand for 4 minutes. Then added 8 μL of 750 nM chymotrypsin and incubated at 37° C. for 10 min, and centrifugated at 500 rpm for 1 min and allowed to stand for 9 minutes. Finally, added 2 μL of 50 mM AAPFpNA, and mixed by centrifugation at 500 rpm for 1 min. The plate was incubated at 37° C. for 90 min, and the absorbance value at 405 nm was measured. Three repetitions were made, and only reaction buffer and substrate were added in the blank control as the minimum absorption value (Min OD 405 nm); Only reaction buffer, enzyme and substrate were added in the negative control as the maximum absorption value (Max OD 405 nm).
(2) In the 200 μL of reaction system, the final concentrations of chymotrypsin and AAPFpNA were 30 nM and 0.5 mM, respectively.
Plotted the residual activity of enzyme with […] to obtain the half inhibitory concentration (IC50) of anti-chymorypsin peptides (CHs). Then, substituted it into the formula […]/(1+S/Km) (S, IC50, and Km were substrate concentration, half inhibitory concentration, and Michaelis constant, respectively) to obtain the inhibition constant Ki of anti-chymorypsin peptides (CHs).

[1] = read-out: Residual activity of chymotrypsin

Row | Compound | Ki [nM] | IC50 [nM] | remaining activity at 0.001 µM [1] [%] | remaining activity at 0.1 µM [1] [%] | remaining activity at 0.2 µM [1] [%] | remaining activity at 0.4 µM [1] [%] | remaining activity at 1 µM [1] [%] | remaining activity at 5 µM (peptide 5 μM, read-out: Residual activity of chymotrypsin) [%] | remaining activity at 10 µM [1] [%] | remaining activity at 100 µM [1] [%] | remaining activity at 1000 µM [1] [%] | remaining activity at 0.01 µM [1] [%] | remaining activity at 0.3 µM (peptide 0.3 μM, read-out: Residual activity of chymotrypsin) [%] | remaining activity at 0.5 µM [1] [%] | remaining activity at 0.0001 µM [1] [%] | remaining activity at 0.05 µM (peptide 0.05 μM, read-out: Residual activity of chymotrypsin) [%] | remaining activity at 0.25 µM [1] [%] | remaining activity at 0.15 µM (peptide 0.15 μM, read-out: Residual activity of chymotrypsin) [%] | remaining activity at 0.75 µM [1] [%] | IC50 reduced (fold) (relative to CH55) [times]
1 | CC[C@H](C)[C@@H]1NC(=O)[C@@H]2CCCN2C(=O)[C@@H]2CCCN2C(=O)[C@H]([C@@H](C)CC)NC(=O)[C@H](CO)NC(=O)[C@H](Cc2ccccc2)NC(=O)[C@H]([C@@H](C)O)NC(=O)[C@@H](NC(=O)[C@@H](NC(=O)CN)[C@@H](C)O)CSSC[C@@H](C(=O)N[C@@H](CC(N)=O)C(=O)N2CCC[C@H]2C(=O)N[C@@H](CC(N)=O)C(=O)O)NC1=O [CH59] (H-GTCTFSIPPICNPN-OH; disulfide 3-11; C-terminus assumed) | 80 | 180 | – | – | – | – | – | – | – | – | – | – | – | – | – | – | – | – | – | –
2 | CC[C@H](C)[C@@H]1NC(=O)[C@@H]2CCCN2C(=O)[C@@H]2CCCN2C(=O)[C@H]([C@@H](C)CC)NC(=O)[C@H](CO)NC(=O)[C@H](Cc2ccccc2)NC(=O)[C@H]([C@@H](C)O)NC(=O)[C@@H](NC(=O)[C@@H](NC(=O)CN)[C@@H](C)O)CSSC[C@@H](C(=O)N[C@@H](CC(N)=O)C(=O)O)NC1=O [CH26] (H-GTCTFSIPPICN-OH; disulfide 3-11; C-terminus assumed) | 230 | 540 | 101 ± 1.6 | 95.1 ± 2.1 | 83.1 ± 1.1 | 63.2 ± 4.5 | 27.8 ± 2.5 | 7 ± 0.5 | 2.2 ± 0.2 | 0.3 ± 0.1 | 0.1 | – | – | – | – | – | – | – | – | –
3 | CC[C@H](C)[C@@H]1NC(=O)[C@@H]2CCCN2C(=O)[C@@H]2CCCN2C(=O)[C@H]([C@@H](C)CC)NC(=O)[C@H](CO)NC(=O)[C@H](Cc2ccc(O)cc2)NC(=O)[C@H]([C@@H](C)O)NC(=O)[C@H](C)NC(=O)[C@H](CCCNC(=N)N)NC(=O)[C@H](CCCCN)NC(=O)[C@@H](N)CSSC[C@@H](C(=O)N[C@@H](Cc2ccccc2)C(=O)O)NC1=O [CH69] (H-CKRATYSIPPICF-OH; disulfide 1-12; C-terminus assumed) | 130 | 300 | 101.7 ± 0.3 | 100 ± 2.5 | 78 ± 4 | – | 12.1 ± 1.1 | – | 1.3 ± 0.6 | 0 | – | 101 ± 0.2 | 51.5 ± 5.8 | 20.1 ± 6.1 | – | – | – | – | – | –
4 | CC[C@H](C)[C@@H]1NC(=O)[C@@H]2CCCN2C(=O)[C@@H]2CCCN2C(=O)[C@H]([C@@H](C)CC)NC(=O)[C@H](CO)NC(=O)[C@H](Cc2ccc(O)cc2)NC(=O)[C@H]([C@@H](C)O)NC(=O)[C@@H](NC(=O)[C@@H](NC(=O)CN)[C@@H](C)O)CSSC[C@@H](C(=O)N[C@@H](CC(N)=O)C(=O)O)NC1=O [CH62] (H-GTCTYSIPPICN-OH; disulfide 3-11; C-terminus assumed) | 60 | 150 | – | 56.4 ± 2 | – | – | 14.2 ± 5.9 | – | 0.8 ± 0.1 | 0.1 | – | 102 ± 2.2 | – | 25.1 ± 1.5 | 100.9 ± 0.8 | 83.4 ± 8.3 | 40.9 ± 6.8 | – | – | –
5 | CC[C@H](C)[C@@H]1NC(=O)[C@@H]2CCCN2C(=O)[C@@H]2CCCN2C(=O)[C@H]([C@@H](C)CC)NC(=O)[C@H](CO)NC(=O)[C@H](Cc2ccc(O)cc2)NC(=O)[C@H]([C@@H](C)O)NC(=O)[C@@H](NC(=O)[C@@H](NC(=O)CN)[C@@H](C)O)CSSC[C@@H](C(=O)N[C@@H](CC(N)=O)C(=O)N2CCC[C@H]2C(=O)N[C@@H](CC(N)=O)C(=O)O)NC1=O [CH60] (H-GTCTYSIPPICNPN-OH; disulfide 3-11; C-terminus assumed) | 40 | 90 | 104.5 ± 0.9 | 47.6 ± 7.6 | – | – | 3 ± 0.2 | – | 0.7 ± 0.1 | 0 | – | 102 ± 7.6 | – | 7.4 ± 1 | 104.2 ± 0.8 | – | 29.5 ± 4.6 | – | – | –
6 | CC[C@H](C)[C@@H]1NC(=O)[C@@H]2CCCN2C(=O)[C@@H]2CCCN2C(=O)[C@H]([C@@H](C)CC)NC(=O)[C@H](CO)NC(=O)[C@H](Cc2ccc(O)cc2)NC(=O)[C@H]([C@@H](C)O)NC(=O)[C@H](C)NC(=O)[C@H](CCCNC(=N)N)NC(=O)CNC(=O)[C@@H](N)CSSC[C@@H](C(=O)N[C@@H](Cc2ccccc2)C(=O)O)NC1=O [CH67] (H-CGRATYSIPPICF-OH; disulfide 1-12; C-terminus assumed) | 860 | 2000 | – | – | – | – | – | – | – | – | – | – | – | – | – | – | – | – | – | –
7 | CC[C@H](C)[C@@H]1NC(=O)[C@@H]2CCCN2C(=O)[C@@H]2CCCN2C(=O)[C@H]([C@@H](C)CC)NC(=O)[C@H](CO)NC(=O)[C@H](Cc2ccc(O)cc2)NC(=O)[C@H]([C@@H](C)O)NC(=O)[C@H](C)NC(=O)[C@H](CCCNC(=N)N)NC(=O)[C@H](CCC(=O)O)NC(=O)[C@@H](N)CSSC[C@@H](C(=O)N[C@@H](Cc2ccccc2)C(=O)O)NC1=O [CH70] (H-CERATYSIPPICF-OH; disulfide 1-12; C-terminus assumed) | 110 | 250 | 100 ± 7.6 | 105.8 ± 0.9 | 55 ± 7.2 | – | 7.7 ± 0.2 | – | 0.7 ± 0.3 | -0.1 ± 0.1 | – | 106 ± 1.8 | – | 26 ± 2.5 | – | – | – | 96.5 ± 8.5 | – | –
8 | CC[C@H](C)[C@@H]1NC(=O)[C@H](CO)NC(=O)[C@H](Cc2ccc(O)cc2)NC(=O)[C@H]([C@@H](C)O)NC(=O)[C@@H](NC(=O)[C@@H](N)Cc2ccccc2)CSSC[C@@H](C(=O)N[C@@H](Cc2ccc(O)cc2)C(=O)O)NC(=O)[C@H](CCC(N)=O)NC(=O)[C@@H]2CCCN2C(=O)[C@@H]2CCCN2C1=O [CH33] (H-FCTYSIPPQCY-OH; disulfide 2-10; C-terminus assumed) | 190 | 440 | 99.5 ± 1.4 | 93.6 ± 1.6 | – | – | 19.8 ± 1 | – | 2 ± 0.2 | 0.1 | 0.1 | 92.1 ± 2.1 | – | 42.7 ± 3.1 | – | – | – | – | 24.6 ± 2 | –
9 | CC[C@H](C)[C@@H]1NC(=O)[C@H](CO)NC(=O)[C@H](Cc2ccc(O)cc2)NC(=O)[C@H]([C@@H](C)O)NC(=O)[C@@H](NC(=O)[C@@H](N)Cc2ccccc2)CSSC[C@@H](C(=O)N[C@@H](Cc2ccc(O)cc2)C(=O)N[C@@H](C)C(=O)O)NC(=O)[C@H](CCC(N)=O)NC(=O)[C@@H]2CCCN2C(=O)[C@@H]2CCCN2C1=O [CH34] (H-FCTYSIPPQCYA-OH; disulfide 2-10; C-terminus assumed) | 160 | 370 | 102.3 ± 0.8 | 104.8 ± 0.6 | 78.5 ± 2.5 | 45.5 ± 1.5 | 17.8 ± 0.9 | – | 1.2 ± 0.1 | 0.1 | – | 104.1 ± 0.5 | – | – | – | – | – | – | 24.5 ± 0.9 | –
10 | CC[C@H](C)[C@@H]1NC(=O)[C@@H]2CCCN2C(=O)[C@@H]2CCCN2C(=O)[C@H]([C@@H](C)CC)NC(=O)[C@H](CO)NC(=O)[C@H](Cc2ccc(O)cc2)NC(=O)[C@H]([C@@H](C)O)NC(=O)[C@@H](NC(=O)[C@H](CCCNC(=N)N)NC(=O)CN)CSSC[C@@H](C(=O)N[C@@H](Cc2ccccc2)C(=O)N2CCC[C@H]2C(=O)O)NC1=O [CH56] (H-GRCTYSIPPICFP-OH; disulfide 3-11; C-terminus assumed) | 270 | 620 | – | – | – | – | – | – | – | – | – | – | – | – | – | – | – | – | – | 30
11 | CC[C@H](C)[C@@H]1NC(=O)[C@@H]2CCCN2C(=O)[C@@H]2CCCN2C(=O)[C@H]([C@@H](C)CC)NC(=O)[C@H](CO)NC(=O)[C@H](Cc2ccc(O)cc2)NC(=O)[C@H]([C@@H](C)O)NC(=O)[C@H](C)NC(=O)[C@H](CCCNC(=N)N)NC(=O)CNC(=O)[C@@H](N)CSSC[C@@H](C(=O)N[C@@H](Cc2ccccc2)C(=O)N2CCC[C@H]2C(=O)O)NC1=O [CH66] (H-CGRATYSIPPICFP-OH; disulfide 1-12; C-terminus assumed) | 280 | 650 | – | – | – | – | – | – | – | – | – | – | – | – | – | – | – | – | – | –
